# Experimental data reported in patent US6458781B1, “Substituted diarylalkyl amides as calcium channel antagonists” (priority 1998, dated 2002).
# Where a name gives a salt, the structure may show the parent alone.
# Key:
# [1] = target: T1, N-type calcium channels in IMR-32 cells (Homo sapiens, UniProt Q00975); assay: N-type Ca2+ channel blocking potency in IMR-32 cells using Indo-1; type: cell-based; details: IMR-32 cells, 5 μM nitrendipine present; read-out: IMR32 IC50
# T1 construct: host or cells: IMR-32 cells differentiated with dibutyryl cAMP and bromodeoxyuridine
# T1 sequence (Q00975 whole entry): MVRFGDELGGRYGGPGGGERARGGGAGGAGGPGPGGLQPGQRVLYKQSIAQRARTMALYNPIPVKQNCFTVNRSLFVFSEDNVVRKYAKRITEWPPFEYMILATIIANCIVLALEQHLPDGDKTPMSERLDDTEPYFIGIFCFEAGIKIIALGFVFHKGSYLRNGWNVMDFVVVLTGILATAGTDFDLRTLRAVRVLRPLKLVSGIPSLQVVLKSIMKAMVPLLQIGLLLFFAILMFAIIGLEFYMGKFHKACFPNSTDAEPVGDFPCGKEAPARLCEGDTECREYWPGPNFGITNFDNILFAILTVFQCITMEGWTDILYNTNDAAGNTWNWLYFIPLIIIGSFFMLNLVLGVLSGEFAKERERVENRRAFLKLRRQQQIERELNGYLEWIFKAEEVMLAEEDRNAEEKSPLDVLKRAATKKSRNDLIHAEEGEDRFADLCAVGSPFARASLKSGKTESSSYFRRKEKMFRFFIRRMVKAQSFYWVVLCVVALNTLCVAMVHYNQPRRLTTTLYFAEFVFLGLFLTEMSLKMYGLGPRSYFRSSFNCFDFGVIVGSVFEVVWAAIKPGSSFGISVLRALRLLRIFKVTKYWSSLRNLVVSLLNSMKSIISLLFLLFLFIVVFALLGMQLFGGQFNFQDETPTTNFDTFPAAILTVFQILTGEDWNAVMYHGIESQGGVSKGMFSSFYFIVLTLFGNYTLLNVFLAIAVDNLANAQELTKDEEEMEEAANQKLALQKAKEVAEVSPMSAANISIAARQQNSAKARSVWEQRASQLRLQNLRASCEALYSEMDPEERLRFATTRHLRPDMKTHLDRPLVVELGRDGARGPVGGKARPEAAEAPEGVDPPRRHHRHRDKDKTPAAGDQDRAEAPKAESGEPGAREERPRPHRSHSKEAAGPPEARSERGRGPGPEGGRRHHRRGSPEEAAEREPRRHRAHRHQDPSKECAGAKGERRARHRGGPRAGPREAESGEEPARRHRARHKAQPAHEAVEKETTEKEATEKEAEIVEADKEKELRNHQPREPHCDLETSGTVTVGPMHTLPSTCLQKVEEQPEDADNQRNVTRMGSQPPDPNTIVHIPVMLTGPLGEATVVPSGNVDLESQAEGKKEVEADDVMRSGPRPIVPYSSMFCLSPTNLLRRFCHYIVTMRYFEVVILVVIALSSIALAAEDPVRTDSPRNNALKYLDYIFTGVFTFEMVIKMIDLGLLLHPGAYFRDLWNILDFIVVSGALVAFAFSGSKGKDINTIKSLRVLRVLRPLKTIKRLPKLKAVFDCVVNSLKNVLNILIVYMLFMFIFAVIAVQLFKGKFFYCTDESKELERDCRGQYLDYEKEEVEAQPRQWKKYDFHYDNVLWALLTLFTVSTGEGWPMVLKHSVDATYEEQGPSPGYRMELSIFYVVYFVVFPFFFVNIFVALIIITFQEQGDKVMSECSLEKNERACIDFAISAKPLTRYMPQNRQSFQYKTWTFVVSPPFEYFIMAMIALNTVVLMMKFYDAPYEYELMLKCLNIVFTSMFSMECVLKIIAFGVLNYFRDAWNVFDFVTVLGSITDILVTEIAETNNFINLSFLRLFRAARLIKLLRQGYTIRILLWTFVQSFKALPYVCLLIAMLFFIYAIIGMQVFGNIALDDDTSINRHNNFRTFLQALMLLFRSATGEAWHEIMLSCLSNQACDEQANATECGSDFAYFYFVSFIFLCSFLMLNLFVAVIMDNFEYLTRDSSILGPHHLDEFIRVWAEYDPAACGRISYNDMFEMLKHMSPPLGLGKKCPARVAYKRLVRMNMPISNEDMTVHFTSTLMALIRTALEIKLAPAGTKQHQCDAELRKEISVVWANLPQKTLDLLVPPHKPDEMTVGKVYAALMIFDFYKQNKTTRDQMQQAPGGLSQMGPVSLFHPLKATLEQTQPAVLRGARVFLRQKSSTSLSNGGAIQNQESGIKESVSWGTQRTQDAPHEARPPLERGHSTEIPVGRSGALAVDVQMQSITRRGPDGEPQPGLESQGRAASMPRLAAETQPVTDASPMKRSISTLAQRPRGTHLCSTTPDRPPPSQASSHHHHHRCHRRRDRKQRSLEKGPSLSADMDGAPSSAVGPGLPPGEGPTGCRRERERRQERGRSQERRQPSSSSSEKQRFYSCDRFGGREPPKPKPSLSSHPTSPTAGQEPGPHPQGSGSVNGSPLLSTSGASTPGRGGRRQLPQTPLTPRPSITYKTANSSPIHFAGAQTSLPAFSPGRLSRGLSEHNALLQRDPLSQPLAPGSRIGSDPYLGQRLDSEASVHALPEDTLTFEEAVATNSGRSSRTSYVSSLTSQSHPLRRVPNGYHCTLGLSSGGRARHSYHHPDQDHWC
# T1 sequence (P54289 25-956 partner limits assumed): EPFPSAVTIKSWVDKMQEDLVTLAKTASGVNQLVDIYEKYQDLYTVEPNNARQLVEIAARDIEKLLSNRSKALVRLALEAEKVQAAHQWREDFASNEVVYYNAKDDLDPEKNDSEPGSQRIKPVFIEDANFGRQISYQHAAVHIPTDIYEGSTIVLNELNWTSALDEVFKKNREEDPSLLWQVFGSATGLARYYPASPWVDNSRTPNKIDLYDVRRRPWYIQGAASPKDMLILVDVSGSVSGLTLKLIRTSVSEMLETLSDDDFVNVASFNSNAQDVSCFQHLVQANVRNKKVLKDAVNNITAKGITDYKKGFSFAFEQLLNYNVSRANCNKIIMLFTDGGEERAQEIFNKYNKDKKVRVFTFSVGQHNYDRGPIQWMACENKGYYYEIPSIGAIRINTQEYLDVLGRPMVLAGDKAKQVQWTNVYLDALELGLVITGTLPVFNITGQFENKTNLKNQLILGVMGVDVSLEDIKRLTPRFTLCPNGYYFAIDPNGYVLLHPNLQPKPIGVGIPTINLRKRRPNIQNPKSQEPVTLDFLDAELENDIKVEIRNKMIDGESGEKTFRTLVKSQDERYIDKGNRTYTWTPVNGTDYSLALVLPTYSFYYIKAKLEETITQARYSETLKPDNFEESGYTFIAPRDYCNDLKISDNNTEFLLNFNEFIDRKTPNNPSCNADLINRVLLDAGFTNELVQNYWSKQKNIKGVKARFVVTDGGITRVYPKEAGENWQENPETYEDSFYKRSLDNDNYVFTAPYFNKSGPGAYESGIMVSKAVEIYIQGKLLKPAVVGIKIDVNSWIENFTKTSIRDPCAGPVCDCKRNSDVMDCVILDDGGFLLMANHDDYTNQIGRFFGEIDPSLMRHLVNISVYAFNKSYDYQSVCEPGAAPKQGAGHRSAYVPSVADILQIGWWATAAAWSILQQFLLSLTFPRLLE
# T1 sequence (P54289 957-1103 partner limits assumed): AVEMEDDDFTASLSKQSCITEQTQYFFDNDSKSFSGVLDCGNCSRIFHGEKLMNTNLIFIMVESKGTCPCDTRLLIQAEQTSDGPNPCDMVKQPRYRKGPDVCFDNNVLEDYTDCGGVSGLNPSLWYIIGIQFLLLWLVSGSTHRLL
# T1 sequence (Q02641 whole entry partner): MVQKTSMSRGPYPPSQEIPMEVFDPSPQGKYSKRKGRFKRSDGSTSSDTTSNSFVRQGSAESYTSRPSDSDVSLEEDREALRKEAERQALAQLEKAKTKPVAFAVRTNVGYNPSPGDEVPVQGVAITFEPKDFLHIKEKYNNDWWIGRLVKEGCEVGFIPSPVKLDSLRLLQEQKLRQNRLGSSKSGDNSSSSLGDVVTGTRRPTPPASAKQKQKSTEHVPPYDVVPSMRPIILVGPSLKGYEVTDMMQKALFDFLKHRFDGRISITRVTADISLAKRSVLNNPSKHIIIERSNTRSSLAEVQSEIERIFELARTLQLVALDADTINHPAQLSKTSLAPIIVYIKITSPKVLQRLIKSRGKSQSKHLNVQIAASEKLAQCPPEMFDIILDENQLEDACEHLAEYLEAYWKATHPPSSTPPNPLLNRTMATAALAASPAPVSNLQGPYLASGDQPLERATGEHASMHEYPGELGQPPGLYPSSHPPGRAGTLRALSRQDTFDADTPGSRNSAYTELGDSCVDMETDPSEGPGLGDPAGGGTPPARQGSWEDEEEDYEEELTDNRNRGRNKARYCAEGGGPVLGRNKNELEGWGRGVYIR
# Procedure: Measurement of N-type Ca^2+ Channel Blocking Potencies of Compounds in IMR-32 Cells Using the Fluorescent Ca^2+ Indicator Indo-1
# IMR-32 cells are a human tumoral cell line of neural origin. […] Calcium flux into these cells may be induced by stimulation with elevated potassium concentrations. The L-channel component of calcium flux may be blocked by adding 5 μM nitrendipine. The remaining component of calcium entry into the IMR-32 cells is due to calcium flux through N-type calcium channels. Intracellular calcium concentrations are measured using the fluorescent calcium indicator Indo-1. The effect of drug concentration on calcium uptake is studied.
# The IMR-32 cell line was obtained from the American Type Culture Collection (Rockville, Md.). Cells were grown in Eagle's Minimum Essential Medium with Earle's salts supplemented with 10% fetal bovine serum, 2 mM L-Gln and antibiotic/antimycotic mixture (Gibco). At approximately 80% confluency, differentiation was induced by the addition of 1 mM dibutyryl cAMP and 2.5 μM bromodeoxyuridine to the medium. After 7 to 13 days of differentiation, cells were detached using 0.5 mM EDTA and loaded with 5 μM Indo-1 acetoxymethyl ester (Molecular Probes, Eugene, Oreg.) at 30° C. for 45 minutes. Loaded cells were washed twice, resuspended (˜10^7 cells/mL) in assay buffer (10 mM HEPES/Tris pH 7.4 in Hank's Balanced Salt Solution without bicarbonate or phenol red containing 0.5% bovine serum albumin) and kept on ice until use. Fluorescence measurements were carried out in a Photon Technology International (PTI, South Brunswick, N.J.) Model RF-F3004 spectrofluorometer with dual emission monochromators using excitation at 350 nm and emission at 400 and 490 nm. The instrument was equipped with a thermostated cuvette holder with stirring capabilities as well as with a computer-controlled pump which allowed for reagent addition during measurement. Instrument control and data collection was done by PTI's OSCAR software running on an IBM compatible computer. Different concentrations of the test compounds (60 μL in dimethyl sulfoxide) were added to 5.94 mL of assay buffer containing approximately 3×10^6 loaded cells, and 5 μM Nitrendipine (in 30 μL EtOH) to block L-type Ca^2+ channels. Samples were incubated for 10 minutes at 30° C. and the aliquot into three 10×10 mm disposable acrylic cuvettes. Emission signals at 400 and 490 nm were acquired from each cuvette at 30° C. for 50 seconds. At 20 seconds after the start of reading, cells were depolarized by the addition of 160 μL of stimulation solution (1 M KCl, 68 mM CaCl2) to the cuvette via the computer-controlled pump. Ratio of dual emission signals (400/490 nm), which is proportional to intracellular Ca^2+ concentration, was plotted against time, and the difference between maximal response after stimulation and basal value (before stimulation) was determined. Values obtained in this way were plotted as a function of drug concentration. IC50 values of test compounds were calculated by fitting a four-parameter logistic function to the data using the least squares method.
Structure (SMILES),melting point [°C],IC50 [1] [nM]
"CC(C)[C@H](NC1CCCCC1)C(=O)NCCCC(c1ccc(F)cc1)c1ccc(F)cc1 (as salt: hydrochloride) [Example 70, (S)-N-[4,4-Bis-(4-fluoro-phenyl)-butyl]-2-cyclohexylamino-3-methyl-butyramide]",49 to 53,
"CC(C)C[C@H](NC(=O)N1CCCCCC1)C(=O)NCCC(c1ccccc1)c1ccccc1 [Example 5, (S)-Azepane-1-carboxylic acid [1-(3,3-diphenyl-propylcarbamoyl)-3-methyl-butyl]-amide]",144 to 145,1800
"CC(C)C[C@H](NC(C)C)C(=O)N1CCN(C(c2ccc(F)cc2)c2ccc(F)cc2)CC1 (as salt: hydrochloride) [Example 49, (S)-1-{4-[Bis-(4-fluoro-phenyl)-methyl]-piperazin-1-yl}-2-isopropylamino-4-methyl-pentan-1-one monohydrochloride]",100 to 103,
"CC(C)C[C@H](NC(=O)N1CCCCCC1)C(=O)NCC(c1ccccc1)c1ccccc1 [Example 4, (S)-Azepane-1-carboxylic acid [1-(2,2-diphenyl-ethylcarbamoyl)-3-methyl-butyl]-amide]",194 to 195,3300
"CC(C)C[C@H](NC(=O)OC(C)(C)C)C(=O)NCCCC(c1ccc(F)cc1)c1ccc(F)cc1 [Example 6, (S)-{1-[4,4-Bis-(4-fluoro-phenyl)-butylcarbamoyl]-3-methyl-butyl}-carbamic acid tert-butyl ester]",50 to 55,1300
"CC(C)C[C@@H](C(=O)NCCCC(c1ccc(F)cc1)c1ccc(F)cc1)N(C)C1CCCCC1 (as salt: hydrochloride) [Example 21, (S)-2-(Cyclohexyl-methyl-amino)-4-methyl-pentanoic acid [4,4-bis-(4-fluoro-phenyl)-butyl]-amide monohydrochloride]",73 to 83,
"CC(C)C[C@H](NC(=O)N1CCCCCC1)C(=O)NCc1nn(-c2ccccc2)c2ccccc12 [Example 11, (S)-Azepane-1-carboxylic acid {3-methyl-1-[(1-phenyl-1H-indazol-3-ylmethyl)-carbamoyl]-butyl}-amide]",135 to 136,4000
"CCC(C)N[C@H](C(=O)NCCCC(c1ccc(F)cc1)c1ccc(F)cc1)C(C)C (stereo partly drawn) (as salt: hydrochloride) [Example 66, (S)-N-[4,4-Bis-(4-fluoro-phenyl)-butyl]-2-sec-butylamino-3-methyl-butyramide]",77 to 81,
"CC(C)C[C@@H](C(=O)NCCCC(c1ccc(F)cc1)c1ccc(F)cc1)N(C)C1CCOCC1 (as salt: hydrochloride) [Example 27, (S)-4-Methyl-2-[methyl-(tetrahydro-pyran-4-yl)-amino]-pentanoic acid [4,4-bis-(4-fluoro-phenyl)-butyl]-amide monohydrochloride]",75 to 92,
"CC(C)[C@@H](C(=O)NCCCC(c1ccc(F)cc1)c1ccc(F)cc1)N(C)C1CCCCC1 (as salt: hydrochloride) [Example 69, (S)-N-[4,4-Bis-(4-fluoro-phenyl)-butyl]-2-(cyclohexyl-methyl-amino)-3-methyl-butyramide]",82 to 86,
"CC(C)N[C@H](C(=O)NCCCC(c1ccc(F)cc1)c1ccc(F)cc1)C(C)C (as salt: hydrochloride) [Example 65, (S)-N-[4,4-Bis-(4-fluoro-phenyl)-butyl]-2-isopropylamino-3-methyl-butyramide]",72 to 80,
"CC(C)C[C@H](NC(=O)N1CCCCCC1)C(=O)NCCCC1(c2ccccc2)C(=O)N(C)c2ccccc21 (stereo partly drawn) [Example 10, (S)-Azepane-1-carboxylic acid {3-methyl-1-[3-(1-methyl-2-oxo-3-phenyl-2,3-dihydro-1H-indol-3-yl)-propylcarbamoyl]-butyl}-amide]",181 to 182,2600
"CC(C)C[C@@H](C(=O)NCCCC(c1ccc(F)cc1)c1ccc(F)cc1)N(C)C (as salt: hydrochloride) [Example 20, (S)-2-Dimethylamino-4-methyl-pentanoic acid [4,4-bis-(4-fluoro-phenyl)-butyl]-amide monohydrochloride]",60 to 72,
"CC(C)C[C@H](NC(C)C)C(=O)NCCCC(c1ccc(F)cc1)c1ccc(F)cc1 (as salt: hydrochloride) [Example 19, (S)-2-Isopropylamino-4-methyl-pentanoic acid [4,4-bis-(4-fluoro-phenyl)-butyl]-amide monohydrochloride]",100 to 103,
"CC(C)C[C@@H](C(=O)NCCCC(c1ccc(F)cc1)c1ccc(F)cc1)N1CCOCC1 (as salt: hydrochloride) [Example 23, (S)-4-Methyl-2-morpholin-4-yl-pentanoic acid [4,4-bis-(4-fluoro-phenyl)-butyl]-amide monohydrochloride]",63 to 78,
"CN[C@H](C(=O)NCCCC(c1ccc(F)cc1)c1ccc(F)cc1)C(C)C (as salt: hydrochloride) [Example 73, (S)-3-Methyl-2-methylamino-butanoic acid [4,4-bis-(4-fluorophenyl)-butyl]-amide monohydrochloride]",85 to 90,
"CC(C)C[C@@H](C(=O)NCCC(c1ccccc1)c1ccccc1)N(C)C1CCCCC1 (as salt: hydrochloride) [Example 25, (S)-2-(Cyclohexyl-methyl-amino)-4-methyl-pentanoic acid (3,3-diphenyl-propyl)-amide monohydrochloride]",67 to 86,
"CC(C)C[C@@H](C(=O)NCCCC(c1ccc(F)cc1)c1ccc(F)cc1)N(C)C(C)C (as salt: hydrochloride) [Example 68, (S)-2-(Isopropyl-methyl-amino)-4-methyl-pentanoic acid [4,4-bis-(4-fluoro-phenyl)-butyl]-amide]",155 to 156,
"CC(C)=CCN(C)[C@@H](CC(C)C)C(=O)NCCCC(c1ccc(F)cc1)c1ccc(F)cc1 (as salt: hydrochloride) [Example 13, (S)-4-Methyl-2-[methyl-(3-methyl-but-2-enyl)-amino]-pentanoic acid [4,4-bis-(4-fluoro-phenyl)-butyl]-amide monohydrochloride]",55 to 68,
